According to patent US20110166123A1, “NOVEL COMPOSITIONS AND METHODS OF USE” (priority 2008, published 2011):
pEC50: −log10 of the molar value. Values joined by “and” are separate entries in the source; they are usually repeats but may differ in a detail not shown here. Equal values may be shown once. Marks after values point to notes of the source that are not given here.

How the values were obtained:
[1] = Hepatocytes incubation (Method 1), monkey; assay type: in vitro ADME; settings: compound 10 μM, 37° C., 2 hrs
Procedure: (§1) Cryopreserved hepatocytes were thawed in a water bath at 37° C. and transferred to a 50-mL tube containing 45 mL of pre-warmed incubation medium (In VitroGRO HT medium). The tube was inverted 3 times to ensure resuspension of hepatocytes and centrifuged at 50 g at room temperature for 5 minutes. The supernatant was decanted without disturbing the pellet. The pellet of hepatocytes was resuspended in 1 mL of William's E medium and the viable cell counting was determined by the tryptan blue exclusion method.
(§2) The William's E medium was added to the suspension of the hepatocytes pellet to make a final density of 2 million cells/mL. Stock solution of the compound was prepared at the concentration of 1 mM and diluted to 10 μM with William's E medium. The culture plate was incubated at 37° C. under 5% carbon dioxide and 95% air atmosphere for 2 hrs. The metabolic reaction was terminated by transferring the contents of the well into a centrifuge tube containing 1 mL of 0.1% TFAA acetonitrile solution and then vortexing. After centrifugation, the supernatant was subjected to 15 minute of concentration (N2 flow, 32° C.). The resulted final extract was transferred to clean vials for HPLC analysis.

[2] = Microsomal incubation (Method 1), dog; assay type: in vitro ADME; settings: dog liver microsomes; compound 10 μM, 1 mg protein/mL, NADPH 1 mM, 60 minutes at 37° C.
Procedure: (§3) Compound (10 μM) was incubated with rat, dog, cynomolgus monkey, and human liver microsomes (1 mg protein/mL) in a final volume of 1 mL in 2-mL Eppendorf tubes. The mixture containing enzymes, potassium phosphate buffer (100 mM, pH 7.4), and the compound was pre-incubated at 37° C. for 3 min. The reaction was initiated by the addition of NADPH (final concentration of 1 mM) and incubated for 60 minutes at 37° C. The reaction was terminated by the addition of 1 mL of acetonitrile. After centrifugation at 12000 rpm for 3 minutes, the supernatant was subjected to 15 minutes of concentration (N2 flow, 32° C.). The resulting final extract was transferred to clean vials and analyzed by HPLC.

[3] = system: human immunodeficiency virus type 1 (HIV-1); test: microbe, parasite or virus in culture; assay type: cell-based; settings: Human immunodeficiency virus 1, HeLa, 48 h, HIV-1 luciferase reporter, HeLa cells, 48 hours after infection
[4] = Microsomal incubation (Method 1), human; assay type: in vitro ADME; settings: human liver microsomes, compound 10 μM, 1 mg protein/mL, NADPH 1 mM, 60 minutes at 37° C.
Procedure: as §3

[5] = Hepatocytes incubation (Method 1), rat; assay type: in vitro ADME; settings: compound 10 μM, 37° C., 2 hrs
Procedure: as §1, §2

[6] = Hepatocytes incubation (Method 1), human; assay type: in vitro ADME; settings: compound 10 μM, 37° C., 2 hrs
Procedure: as §1, §2

[7] = Microsomal incubation (Method 1), monkey; assay type: in vitro ADME; settings: cynomolgus monkey liver microsomes; compound 10 μM, 1 mg protein/mL, NADPH 1 mM, 60 minutes at 37° C.
Procedure: as §3

[8] = Microsomal incubation (Method 1), rat; assay type: in vitro ADME; settings: rat liver microsomes; compound 10 μM, 1 mg protein/mL, NADPH 1 mM, 60 minutes at 37° C.
Procedure: as §3

[9] = Hepatocyte stability (Example 36), rat; settings: rat hepatocytes 1 million cells/mL, 37° C., 4 hours, LC-MS/MS
[10] = Hepatocyte stability (Example 36), human; settings: human hepatocytes 1 million cells/mL, 37° C., 4 hours, LC-MS/MS
[11] = CYP3A4 activity 3800 (pmol/mg protein)

COc1nc2c(cc1Cc1cccc(Cl)c1F)c(=O)c(C(=O)O)cn2[C@H](CO)C(C)C [Example 1A, 6-(3-Chloro-2-fluoro-benzyl)-1-((S)-1-hydroxymethyl-2-methyl-propyl)-7-methoxy-4-oxo-1,4-dihydro-[1,8]naphthyridine-3-carboxylic acid]
% Remaining, Monkey, Hepatocyte [1]: 72.3% | % Remaining, Dog, Microsome [2]: 102% | pEC50 [3]: > 8.00 | % Remaining, Human, Microsome [4, 11]: 101% and 96.1% | % Remaining, Human, Microsome ([4]; CYP3A4 activity 7800 (pmol/mg protein)): 83.5% | % Remaining, Rat, Hepatocyte [5]: 66.9% | % Remaining, Human, Hepatocyte [6]: 89.6% | % Remaining, Monkey, Microsome [7]: 66.3% | % Remaining, Rat, Microsome [8]: 38.1%

COc1nc2c(cc1NCc1c(F)cc(F)cc1F)c(=O)c(C(=O)O)cn2[C@H](CO)C(C)C [Example 20AA, (S)-1-(1-hydroxy-3-methylbutan-2-yl)-7-methoxy-4-oxo-6-(2,4,6-trifluorobenzylamino)-1,4-dihydro-1,8-naphthyridine-3-carboxylic acid]
pEC50 [3]: > 8.00 | % Remaining (rat) [9]: 43% | % Remaining (human) [10]: 75%

COc1nc2c(cc1NCc1c(F)cc(F)cc1F)c(=O)c(C(=O)O)cn2[C@H](CO)C(C)(C)C [Example 20NN, (S)-1-(1-hydroxy-3,3-dimethylbutan-2-yl)-7-methoxy-4-oxo-6-(2,4,6-trifluorobenzylamino)-1,4-dihydro-1,8-naphthyridine-3-carboxylic acid]
pEC50 [3]: > 8.00 | % Remaining (rat) [9]: 46% | % Remaining (human) [10]: 61%

COc1cc2c(cc1OCc1cccc(Cl)c1F)c(=O)c(C(=O)O)cn2[C@H](CO)C(C)(C)C [Example 29A, (S)-6-(3-chloro-2-fluorobenzyloxy)-1-(1-hydroxy-3,3-dimethylbutan-2-yl)-7-methoxy-4-oxo-1,4-dihydroquinoline-3-carboxylic acid]
pEC50 [3]: < 7.00

COc1cc2c(cc1OCc1c(F)cc(F)cc1F)c(=O)c(C(=O)O)cn2[C@H](CO)C(C)(C)C [Example 29B, (S)-1-(1-hydroxy-3,3-dimethylbutan-2-yl)-7-methoxy-4-oxo-6-(2,4,6-trifluorobenzyloxy)-1,4-dihydroquinoline-3-carboxylic acid]
pEC50 [3]: 7.00 to 8.00

COc1cc2c(cc1OCc1ccccc1C(F)(F)F)c(=O)c(C(=O)O)cn2[C@H](CO)C(C)(C)C [Example 29C, (S)-1-(1-hydroxy-3,3-dimethylbutan-2-yl)-7-methoxy-4-oxo-6-(2-(trifluoromethyl)benzyloxy)-1,4-dihydroquinoline-3-carboxylic acid]
pEC50 [3]: < 7.00

COc1cc2c(cc1OCc1cc(Cl)ccc1F)c(=O)c(C(=O)O)cn2[C@H](CO)C(C)(C)C [Example 29D, (S)-6-(5-chloro-2-fluorobenzyloxy)-1-(1-hydroxy-3,3-dimethylbutan-2-yl)-7-methoxy-4-oxo-1,4-dihydroquinoline-3-carboxylic acid]
pEC50 [3]: < 7.00

COc1ccc(COc2cc3c(=O)c(C(=O)O)cn([C@H](CO)C(C)(C)C)c3cc2OC)cc1 [Example 29E, (S)-1-(1-hydroxy-3,3-dimethylbutan-2-yl)-7-methoxy-6-(4-methoxybenzyloxy)-4-oxo-1,4-dihydroquinoline-3-carboxylic acid]
pEC50 [3]: < 7.00

COc1cc2c(cc1Oc1c(F)cc(F)cc1F)c(=O)c(C(=O)O)cn2[C@H](CO)C(C)(C)C [Example 29F]
pEC50 [3]: < 7.00

COc1cc2c(cc1Oc1ccc(C(F)(F)F)cc1N)c(=O)c(C(=O)O)cn2[C@H](CO)C(C)(C)C [Example 29G]
pEC50 [3]: < 7.00

COc1cc2c(cc1Cc1cccc(Cl)c1F)c(=O)c(C(=O)O)cn2[C@H](CO)C(C)C [Example 30A, reference compound]
% Remaining, Dog, Microsome [2]: 83.8 NA % | % Remaining, Human, Microsome [4, 11]: 40.5 (3800)* NA % | % Remaining (rat) [9]: 29% | % Remaining, Monkey, Microsome [7]: 4.1 NA % | % Remaining (human) [10]: 54% | % Remaining, Rat, Microsome [8]: 6.7 NA %

Cc1nnc(C(=O)NC(C)(C)c2nc(C(=O)NCc3ccc(F)cc3)c(O)c(=O)n2C)o1 [Raltegravir, raltegravir, reference compound]
% Remaining, Monkey, Hepatocyte [1]: 20.0% | % Remaining, Dog, Microsome [2]: 91.8% | % Remaining, Rat, Hepatocyte [5]: 43.3% | % Remaining, Human, Hepatocyte [6]: 32.4% | % Remaining, Monkey, Microsome [7]: 94.7% | % Remaining, Rat, Microsome [8]: 105%
